The first test deals with human TrkA (Homo sapiens (Human), UniProt P04629). Description: Human TrkA inhibition assay (Test Example 2). It is filed as biochemical. The conditions noted are these: Table 153, human TrkA inhibition; read-out: IC50. The method, then: Seven point five μL per well of human TrkA (PV3144, Lifetechnologies, final concentration: 1 nmol/L) suspended in the assay buffer (100 mmol/L 4-(2-hydroxyethyl)-1-piperazineethanesulfonic acid (HEPES), 10 mmol/L magnecium chloride, 0.003 vol % Brij-35, 0.004 vol % Tween20 and 1 mmol/L dithiothreitol (DTT)) was applied in a 384 well plate and the plate was pre-incubated for 15 min at room temperature with 0.4 μL of each compound (final concentration: 200 μmol/L-1 pmol/L) dissolved in DMSO. Then, fluorescent substrate (FL-peptide 27, 760424, PerkinElmer, final concentration: 1.5 μmol/L) and ATP (final concentration 500 μmol/L) dissolved in the assay buffer was added in each well. After the incubation of 120 min at 37° C., fifteen μL of termination buffer (100 mmol/L HEPES, 40 mmol/L ethylenediaminetetraacetic acid (EDTA), 10 mmol/L magnecium chloride, 0.003 vol % Brij-35, 0.004 vol % Tween20, 1 mmol/L DTT and 0.16 vol % Coating Reagent 3) was added in each well to stop the enzyme reaction. Fluorescent intensities (FI) of phosphorylated and non-phosphorylated fluorescent substrates were measured by LabChip EZReader II (Caliper LifeSciences, Inc.), and conversion ratio (CR) was calculated by the following formula-1. The CR in the well applied with DMSO alone was used as a negative control and the CR in the well without applying TrkA was used as a positive control. The inhibitory effect of each compound on TrkA phosphorylation was calculated by the following formula-2. CR (%)=(FI of phosphorylated substrate/(FI of phosphorylated substrate+FI of non-phosphorylated substrate))×100 (Formula-1) Phosphorylation inhibition (%)=(1−(CR with compound treatment−CR of positive control)/(CR of negative control−CR of positive control))×100 (Formula-2)
human TrkA, sequence (P04629 440-796): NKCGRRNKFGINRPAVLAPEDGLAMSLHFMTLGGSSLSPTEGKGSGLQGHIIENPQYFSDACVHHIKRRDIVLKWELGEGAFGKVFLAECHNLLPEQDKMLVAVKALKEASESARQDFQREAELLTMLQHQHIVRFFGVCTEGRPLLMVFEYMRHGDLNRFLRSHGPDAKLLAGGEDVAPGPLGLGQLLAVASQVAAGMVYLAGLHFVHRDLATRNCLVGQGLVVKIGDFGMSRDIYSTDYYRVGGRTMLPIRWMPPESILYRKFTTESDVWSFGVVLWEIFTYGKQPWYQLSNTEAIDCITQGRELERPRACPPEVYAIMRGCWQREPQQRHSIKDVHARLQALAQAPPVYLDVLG
IC50 values (nmol/L) were determined by the logistic regression using the inhibition data in 10 points of 3-fold dilution series at a compound concentration range of 20 nmol/L to 1 pmol/L, or 10 points of 3-fold dilution series at the range of 2 μmol/L to 0.1 nmol/L, or 10 points of 3-fold dilution series at the range of 200 μmol/L to 10 nmol/L, or 15 points of 3-fold dilution series at the range of 200 μmol/L to 0.04 nmol/L.
The evaluation results of the compounds in the present invention are indicated as follows. IC50 values of 0 to 100 nM, 100 to 1000 nM and over 1000 nM were shown as “A”, “B” and “C”, respectively.
For orientation: IC50 means the concentration at which inhibition is half-maximal. For `COCCN1C[C@@H](NC(=O)Nc2c(C)c(-c3cnn(C)c3)nn2-c2ccccc2)[C@H](c2cnc(Cl)s2)O1` (racemic) [Compound I-137], the IC50 was < 0.1 µM. For the compound `COCCN1C[C@@H](NC(=O)Nc2c(C)c(-c3cnn(C)c3)nn2-c2ccc(F)cc2)[C@H](c2ccc(F)c(F)c2)O1` (racemic) [Compound I-87], the IC50 is < 0.1 µM. With `CCN1CCC(NC(=O)c2cc(-c3nn(-c4ccccc4)c(NC(=O)N[C@@H]4CN(CCOC)O[C@H]4c4ccc(F)c(F)c4)c3C)ccn2)CC1` (racemic) [Compound I-62], the IC50 was < 0.1 µM. Consider `COCCN1C[C@@H](NC(=O)Nc2c(C)c(-c3cccc(C(=O)OC(C)(C)C)c3)nn2-c2ccccc2)[C@H](c2ccc(F)c(F)c2)O1` (racemic) [Compound I-50], for which the IC50 was < 0.1 µM. On the same count and under the same terms, the figure for `COCCN1C[C@@H](NC(=O)Nc2c(C)c(C3=CCN(C(C)=O)CC3)nn2-c2ccccc2)[C@H](c2cnc(F)c(F)c2)O1` (racemic) [Compound I-49] is < 0.1 µM; for `COCCN1C[C@@H](NC(=O)Nc2c(C)c(-c3cnc4c(c3)c(CO)nn4C)nn2-c2ccccc2)[C@H](c2cnc(F)c(F)c2)O1` [Compound I-128] it is < 0.1 µM.

Take `COCCN1C[C@@H](NC(=O)Nc2c(C)c(C3=CCN(C(=O)OC(C)(C)C)CC3)nn2-c2ccccc2)[C@H](c2cnc(F)c(F)c2)O1` (racemic) [Compound I-46]: the half-maximal inhibitory concentration (IC50) is < 0.1 µM. On the same count and under the same terms, the figure for `COCCN1C[C@@H](NC(=O)Nc2c(C)c(-c3cnc(N4CC(O)C4)nc3)nn2-c2ccccc2)[C@H](c2ccnc(F)c2)O1` (racemic) [Compound I-144] is < 0.1 µM; for `COCCN1C[C@@H](NC(=O)Nc2c(C)c(-c3cnn(C)c3)nn2C2CC2)[C@H](c2ccc(F)c(F)c2)O1` (racemic) [Compound I-88] it is > 1 µM.

`COCCN1C[C@@H](NC(=O)Nc2c(C)c(-c3cc(C)c(=O)n(C)c3)nn2-c2ccccc2)[C@H](c2cnc(F)c(F)c2)O1` (racemic) [Compound I-71]: the IC50 is < 0.1 µM. Turning to `COCCN1C[C@@H](NC(=O)Nc2c(C)c(-c3cnc4c(c3)nnn4C)nn2-c2ccccc2)[C@H](c2cnc(F)c(F)c2)O1` (racemic) [Compound I-127], the IC50 is < 0.1 µM. The same measure, in the same setting: the figure for `COCCN1C[C@@H](NC(=O)Nc2c(C)c(-c3cnc(N(C)C)nc3)nn2-c2ccccc2)[C@H](c2cnc(F)c(F)c2)O1` [Compound I-133] is < 0.1 µM.

The same test, now with this note: Table 154, human TrkA inhibition; read-out: IC50.
Turning to `COCC[C@@H]1C[C@@H](NC(=O)Nc2c(C)c(-c3cc(C(=O)OC)c(=O)n(C)c3)nn2-c2ccccc2)[C@H](c2ccnc(F)c2)O1` [Compound I-251], the IC50 is < 0.1 µM. With `COCCN1C[C@@H](NC(=O)Nc2c(C)c(-c3cnc(OC)c(C(=O)O)c3)nn2-c2ccccc2)[C@H](c2cnc(F)c(F)c2)O1` (racemic) [Compound I-179], the IC50 is < 0.1 µM. `COCCN1C[C@@H](NC(=O)Nc2c(C)c(-c3ccn4c(C)nnc4c3)nn2-c2ccccc2)[C@H](c2ccc(F)cc2)O1` (racemic) [Compound I-284]: the IC50 is < 0.1 µM. On the same count and under the same terms, for `COCCN1C[C@@H](NC(=O)Nc2c(C)c(-c3cnc(N4CCC4)nc3)nn2-c2ccccc2)[C@H](c2ccnc(F)c2)O1` (racemic) [Compound I-266] the value was < 0.1 µM.

With `COCC[C@@H]1C[C@@H](NC(=O)Nc2c(C)c(-c3cnc(N(C(=O)OC(C)(C)C)C4CC4)nc3)nn2-c2ccccc2)[C@H](c2ccnc(F)c2)O1` [Compound I-290], the IC50 was < 0.1 µM. `COCCN1C[C@@H](NC(=O)Nc2c(C)c(-c3cnc4c(c3)ncn4CC(F)(F)F)nn2-c2ccccc2)[C@H](c2ccnc(F)c2)O1` (racemic) [Compound I-240]: the IC50 was < 0.1 µM.

The test is the same for the next values; noted with them: Table 155, human TrkA inhibition; read-out: IC50.
`COCCN1C[C@@H](NC(=O)Nc2c(C)c(-c3ccc(N4C[C@H]5COC[C@@H](C4)N5)nc3)nn2-c2ccccc2)[C@H](c2ccnc(F)c2)O1` (racemic) [Compound I-394]: the IC50 was < 0.1 µM.

As to `CNC(=O)Cn1cnc2cc(-c3nn(-c4ccccc4)c(NC(=O)N[C@@H]4CN(CCOC)O[C@H]4c4ccnc(F)c4)c3C)cnc21` (racemic) [Compound I-401], the IC50 was < 0.1 µM. Regarding `COCCN1C[C@@H](NC(=O)Nc2c(C)c(-c3ccc4c(c3)N(C)C(=O)CO4)nn2-c2ccccc2)[C@H](c2ccnc(F)c2)O1` (racemic) [Compound I-365], the concentration for half-maximal inhibition (IC50) is < 0.1 µM. On to `COCCN1C[C@@H](NC(=O)Nc2c(C)c(-c3ccn4ccnc4c3)nn2-c2ccccc2)[C@H](c2ccc(F)c(F)c2)O1` [Compound I-461], for which the IC50 was < 0.1 µM. As for `COCCN1C[C@@H](NC(=O)Nc2c(C)c(-c3ccc4nc(C)nn4c3)nn2-c2ccccc2)[C@H](c2cnc(F)c(F)c2)O1` [Compound I-363], the IC50 is < 0.1 µM. For the compound `COCCN1C[C@@H](NC(=O)Nc2c(C)c(-c3cnc4c(c3)CN(Cc3ccccc3)CC4)nn2-c2ccccc2)[C@H](c2ccnc(F)c2)O1` (racemic) [Compound I-428], the IC50 was < 0.1 µM. Regarding `COCCN1C[C@@H](NC(=O)Nc2c(C)c(-c3cnn(C)c3)nn2-c2ccccn2)[C@H](c2ccc(F)c(F)c2)O1` [Compound I-447], the IC50 is < 0.1 µM.

Staying with this test, now noted: Table 156, human TrkA inhibition; read-out: IC50.
As to `CCN1C[C@@H](NC(=O)Nc2c(C)c(-c3cnc(OC)c(C(=O)NC4CCOCC4)c3)nn2-c2ccccc2)[C@H](c2ccc(F)c(F)c2)O1` (racemic) [Compound I-545], the IC50 is < 0.1 µM. For the compound `COCCN1C[C@@H](NC(=O)Nc2c(C)c(-c3cnc(NCC(F)(F)F)nc3)nn2-c2ccccc2)[C@H](c2ccnc(F)c2)O1` (racemic) [Compound I-524], the 50% inhibitory concentration (IC50) was < 0.1 µM.

Still in this test, the particulars now being: Table 157, human TrkA inhibition; read-out: IC50.
In the case of `COCCN1C[C@@H](NC(=O)Nc2c(C)c(OC3CCN(C)CC3)nn2-c2ccccc2)[C@H](c2ccc(F)c(F)c2)O1` [Compound I-603], the IC50 was < 0.1 µM.

`CCN1C[C@@H](NC(=O)Nc2c(C)c(OC(C)C3CCN(C)CC3)nn2-c2ccccc2)[C@H](c2ccc(F)c(F)c2)O1` (stereo partly shown) [Compound I-679]: the IC50 was < 0.1 µM. In the case of `CCN1C[C@@H](NC(=O)Nc2c(C)c(OCC(=O)N(C)C)nn2-c2ccccc2)[C@H](c2ccc(F)c(F)c2)O1` (racemic) [Compound I-647], the IC50 is < 0.1 µM. Same read-out and setting: for `COCCN1C[C@@H](NC(=O)Nc2c(C)c(-c3cnc(N4CCN(C)[C@H](C)C4)nc3)nn2-c2ccccc2)[C@H](c2ccnc(F)c2)O1` [Compound I-592] the value was < 0.1 µM; for `Cc1c(OCC2CCN(C)CC2)nn(-c2ccccc2)c1NC(=O)N[C@@H]1CN(CC2CC2)O[C@H]1c1ccc(F)c(F)c1` (racemic) [Compound I-653], < 0.1 µM; for `CCN1C[C@@H](NC(=O)Nc2c(C)c(OCCC3CCN(C)CC3)nn2-c2ccccc2)[C@H](c2ccc(F)c(F)c2)O1` (racemic) [Compound I-672], < 0.1 µM.

Staying with this test, now noted: human TrkA 1 nmol/L, ATP 500 μmol/L, 120 min at 37° C.; read-out: IC50 values (TrkA phosphorylation inhibition).
As for `CNC(=O)c1ncc(-c2nn(-c3ccccc3)c(NC(=O)N[C@@H]3CN(CCOC)O[C@H]3c3ccnc(F)c3)c2C)cc1C` [Compound I-325], the IC50 was 0.0025 µM. On the same count and under the same terms, for `COCCN1C[C@@H](NC(=O)Nc2c(C)c(-c3cnc4c(cnn4C4CCN(C)CC4)c3)nn2-c2ccccc2)[C@H](c2ccnc(F)c2)O1` (racemic) [Compound I-413] the value was 0.0025 µM; for `COCCN1C[C@@H](NC(=O)Nc2c(C)c(-c3ccc(CN=S(C)(C)=O)cc3)nn2-c2ccccc2)[C@H](c2ccc(F)c(F)c2)O1` [Compound I-332], 0.0012 µM. With `Cc1c(-c2cnn(C)c2)nn(-c2ccccc2)c1NC(=O)N[C@@H]1OC(C)(C)O[C@H]1c1ccccc1` (racemic) [Compound I-1], the IC50 came out at 5.2 µM.

(Values after patent US10640495B2, “Heterocycle derivatives having TrkA inhibitory activity” (Shionogi & Co., Ltd., priority 2015, dated 2020).)
